Test results from patent publication US8592421B2, “Cyclic bioisosters of purine system derivatives and a pharmaceutical composition based thereon” (priority 2003, dated 2013).
Marks after values point to notes of the source that are not given here.

Assays:
[1] = Morphine abstinence model: nitrites/nitrates NOX− in blood plasma, liver and brain; type: in vivo, rats Wistar; conditions: 20.0 mg/kg intramuscularly; for Nitrites in liver: control 0.260 ± 0.023; for Nitrites in brain: Cortex of cerebrum: control 4.63 ± 0.29; for Nitrites in brain: Mesencephalon: control 5.66 ± 0.19; for Nitrites in brain: Hypothalamus: control 6.57 ± 0.50; for Nitrites in blood plasma: control 18.30 ± 2.14
Procedure: The experiments were carried out on rats in series of 7 animals on each compound according to the invention. Non-morphinized animal with not administered with compounds according to the invention were used as a control group. […] Then the rats were decapitated, the blood from somnolent arteries was collected in test tubes with solution EDTA as an anticoagulant, centrifuged at 1500 g for 15 minutes at 4° C.
To estimate the intensity of metabolism of nitrogen oxide in rats, quantitative determination of stable metabolites of nitrogen oxide—nitrites and nitrates NOX^− in the blood plasma, supernatanates of the liver and thymus gland, a study was conducted by a spectrometric method, and in the brain supernatanates by a […] method.
The spectrometric method is based the reaction of nitrites with the Griss reagent (a mixture of 2% solution of sulfanilamide and 0.2% N-(1-naphthyl)ethylene diamine. At the first step the nitrite reacts with sulfanilamide with formation of diazonium salt, and then with the second component to form azo dye with an adsorption maximum at 540 nm. For reduction of nitrates into nitrites, a fermentative method was used with bacterial reductase nitrate (Grisham M. B. et al., 1995). The samples of plasma and supernathant of the liver deproteinizated at 100° C. for 5 minutes incubated for 30 minutes at 37° C. in 50.0 mM of HEPES pH 7.4 in the presence of 0.2 unit/ml of Aspergillus reductase nitrate, 5.0 mkM of FAD and 0.1 mM of NAD-Ph. At the end of the reaction lactate dehydrogenase and pyruvate were added for isolation of NAD-Ph interfering with the Griss reaction. Then the Griss reagent was added and after 10-minute incubation the light absorption of the samples was measured at 540 nm. To amount of NOX^− was calculated using sodium nitrate as a standard.
The fluorometric method is based on calculation of the nitrite level by the intensity fluorescence of 2,3-diaminonaphthotriazole, a product of reaction of 2,3-diaminonaphthalene (DAN) and nitrite in an acidic medium (Misko T. R., Schilling R. J., Salvemini D. et al. “A fluorometric assay for the measurement of nitrite of biological samples”. Anal. Biochem., 1993, v. 214, p. 11-16). The brain supernatants deproteinizated at 100° C. were placed in a nitrite regenerating system containing 0.125 unit/ml of nitrate reductases, 25 mkM NADPh and 25 mkM FAD prepared in a 20-mM Tris-HCl buffer with pH 7.6 and incubated for 30 minutes at 37° C. The lactate dehydrogenase/pyruvate system was used for oxidation of the NADPh. Then 316 mkM of the DAN solution in 0.62 M of hydrochloric acids were added and the mixture was incubated for 10 minutes in darkness.
280 mM of NaOH were added for stabilization of the fluorescence of the formed 2,3-diaminonaphthotriazole. The fluorescence intensity was measured in the spectrofluorimeter Hitachi F-3000 at a wavelength of excitation of 365 nm and an emission of 405 nm. The concentration of NOX^− in the brain was calculated by means of a standard solution of sodium nitrate.

plasma hemostasis [2] = test: Thrombin time after intravenous administration; type: in vivo, rabbit
Procedure: The investigations were performed on 72 rabbits of the “Chinchilla” breed with a mass of 2.5±0.3 kg, who were administered which solutions of compounds 2, 15, 21, 37 in doses of 15, 30 and 60 mg/kg intravenously. The experiments included the thrombin-test (series No. 7300) and the coagulability-test (series No. 5000) purchased from the scientific-and-production association (SPA) “Renam”, thromboplastin (series No. 240600) and calcium chloride purchased from the SPA “MedioLab”
(§1) The static parameters of the blood and plasma coagulation (partial activated thromboplastin time, thrombin time, maximum coagulation activity (test for auto coagulation) were determined using the Behnk Electronic coagulometer (Germany). The operating principle of this instrument is based on the fact that the formed blood clot breaks the contacts of the pulse counter in the flask-pin circuit, said pin permanently oscillating in a vertical plane. The moment of formation of the clot is registered by stopping the stop watch hand.
(§2) The measurements were effected at a constant temperature of 37° C. maintained by a temperature control unit.
The “thrombin time” characterizes the rate of transformation of fibrinogen into fibrin. It was determined by measuring the coagulation time of plasma deprived of thrombocytes under the effect of thrombin standardized by the control plasma.
0.2 ml of a thrombin solution was added to 0.2 ml of the test blood plasma of experimental animals, from whom the blood was taken 15, 30, 60 and 120 minutes after the intravenous administration of compounds 2, 15, 21, 37 according to the invention in doses of 15, 30, 60 mg/kg incubated for 1 minute at a temperature of 37° C. and the time of formation of clot T2 in seconds in a coagulometer of the Behnk Electronic Company (Germany).

plasma hemostasis [3] = test: Partial activated thromboplastin time (PATT) after intravenous administration; type: in vivo, rabbit; conditions: for effect on the PATT: doses 15.0, 30.0, 60.0 mg/kg
Procedure: as §1, §2

[4] = 15.0 mg/kg intravenously, after 15 minutes, control 15.8
[5] = 15.0 mg/kg intravenously, after 30 minutes, control 15.8
[6] = 15.0 mg/kg intravenously, after 60 minutes, control 15.8
[7] = 15.0 mg/kg intravenously, after 120 minutes, control 15.8
[8] = 30.0 mg/kg intravenously, after 15 minutes, control 14.7
[9] = 30.0 mg/kg intravenously, after 30 minutes, control 14.7
[10] = 30.0 mg/kg intravenously, after 60 minutes, control 14.7
[11] = 30.0 mg/kg intravenously, after 120 minutes, control 14.7
[12] = 60.0 mg/kg intravenously, after 15 minutes, control 15.2
[13] = 60.0 mg/kg intravenously, after 30 minutes, control 15.2
[14] = 60.0 mg/kg intravenously, after 60 minutes, control 15.2
[15] = 60.0 mg/kg intravenously, after 120 minutes, control 15.2
[16] = 15.0 mg/kg intravenously, after 15 minutes, control 37.0 ± 0.2
[17] = 15.0 mg/kg intravenously, after 30 minutes, control 37.0 ± 0.2
[18] = 15.0 mg/kg intravenously, after 60 minutes, control 37.0 ± 0.2
[19] = 15.0 mg/kg intravenously, after 120 minutes, control 37.0 ± 0.2
[20] = 30.0 mg/kg intravenously, after 15 minutes, control 33.3 ± 0.8
[21] = 30.0 mg/kg intravenously, after 30 minutes, control 33.3 ± 0.8
[22] = 30.0 mg/kg intravenously, after 60 minutes, control 33.3 ± 0.8
[23] = 30.0 mg/kg intravenously, after 120 minutes, control 33.3 ± 0.8
[24] = 60.0 mg/kg intravenously, after 15 minutes, control 32.5 ± 0.3
[25] = 60.0 mg/kg intravenously, after 30 minutes, control 32.5 ± 0.3
[26] = 60.0 mg/kg intravenously, after 60 minutes, control 32.5 ± 0.3
[27] = 60.0 mg/kg intravenously, after 120 minutes, control 32.5 ± 0.3

Compound | Nitrites in liver ([1]; Control + Compound) | Nitrites in brain: Cortex of cerebrum ([1]; Control + Compound) | Nitrites in brain: Mesencephalon ([1]; Control + Compound) | Nitrites in brain: Hypothalamus ([1]; Control + Compound) | Nitrites in blood plasma ([1]; Control + Compound) | Nitrites in liver ([1]; Control + Morphine + compound) | Nitrites in brain: Cortex of cerebrum ([1]; Control + Morphine + compound) | Nitrites in brain: Mesencephalon ([1]; Control + Morphine + compound) | Nitrites in brain: Hypothalamus ([1]; Control + Morphine + compound) | Nitrites in blood plasma ([1]; Control + Morphine + compound) | thrombin time, T2 (plasma hemostasis [2]; [4]) | thrombin time, T2 (plasma hemostasis [2]; [5]) | thrombin time, T2 (plasma hemostasis [2]; [6]) | thrombin time, T2 (plasma hemostasis [2]; [7]) | thrombin time, T2 (plasma hemostasis [2]; [8]) | thrombin time, T2 (plasma hemostasis [2]; [9]) | thrombin time, T2 (plasma hemostasis [2]; [10]) | thrombin time, T2 (plasma hemostasis [2]; [11]) | thrombin time, T2 (plasma hemostasis [2]; [12]) | thrombin time, T2 (plasma hemostasis [2]; [13]) | also measured
Nc1cccc2c(=O)[nH][nH]c(=O)c12.[Na] [Compound 15, sodium salt of 5-amino-benzo[d]-3H-pyridazine-1,4-dione] | 0.259 ± 0.019 nmol/mg of protein | 4.31 ± 0.37 nmol/mg of protein | 6.65 ± 0.70 nmol/mg of protein | 6.77 ± 0.83 nmol/mg of protein | 14.39 ± 0.84 mkmol/ml | 0.285 ± 0.02 nmol/mg of protein | 4.72 ± 0.37 nmol/mg of protein | 5.50 ± 0.43 nmol/mg of protein | 6.57 ± 0.88 nmol/mg of protein | 13.91 ± 1.91 mkmol/ml | 17.0* s | 18.5* s | 16.5* s | 15.5* s | 19.7* s | 20.5* s | 21.3* s | 15.0* s | 16.8* s | 18.0* s | thrombin time, T2 (plasma hemostasis [2]; [14]): 16.5* s; thrombin time, T2 (plasma hemostasis [2]; [15]): 14.7* s; PATT, T (plasma hemostasis [3]; [16]): 37.0 ± 0.1 s; PATT, T (plasma hemostasis [3]; [17]): 37.0 ± 0.2 s; PATT, T (plasma hemostasis [3]; [18]): 36.9 ± 0.1 s; PATT, T (plasma hemostasis [3]; [19]): 37.0 ± 0.3 s; PATT, T (plasma hemostasis [3]; [20]): 32.9 ± 0.8 s; PATT, T (plasma hemostasis [3]; [21]): 32.1 ± 0.1 s; PATT, T (plasma hemostasis [3]; [22]): 32.0 ± 0.2 s; PATT, T (plasma hemostasis [3]; [23]): 32.0 ± 0.1 s; PATT, T (plasma hemostasis [3]; [24]): 32.2 ± 0.1 s; PATT, T (plasma hemostasis [3]; [25]): 32.2 ± 0.1 s; PATT, T (plasma hemostasis [3]; [26]): 32.1 ± 0.2 s; PATT, T (plasma hemostasis [3]; [27]): 32.2 ± 0.1 s; effect on the PATT (plasma hemostasis [3]): do not affect the PATT
O=c1[nH][nH]c(=O)c2c(Br)ncnc12.[K] [Compound 37, potassium salt of 4-bromine-pyrimido[4,5-D]-6H-pyridazine-5,8-dione] | 0.262 ± 0.018 nmol/mg of protein | 4.36 ± 0.24 nmol/mg of protein | 6.84 ± 0.56 nmol/mg of protein | 6.79 ± 0.92 nmol/mg of protein | 16.13 ± 1.80 mkmol/ml | 0.274 ± 0.01 nmol/mg of protein | 4.77 ± 0.28 nmol/mg of protein | 5.63 ± 0.37 nmol/mg of protein | 6.52 ± 0.83 nmol/mg of protein | 15.33 ± 0.87 mkmol/ml | 16.9* s | 18.2* s | 16.3* s | 15.6* s | 19.5* s | 20.3* s | 21.0* s | 15.2* s | 16.6* s | 17.8* s | thrombin time, T2 (plasma hemostasis [2]; [14]): 16.2* s; thrombin time, T2 (plasma hemostasis [2]; [15]): 15.0* s; PATT, T (plasma hemostasis [3]; [16]): 37.0 ± 0.2 s; PATT, T (plasma hemostasis [3]; [17]): 37.1 ± 0.1 s; PATT, T (plasma hemostasis [3]; [18]): 37.0 ± 0.2 s; PATT, T (plasma hemostasis [3]; [19]): 36.9 ± 0.1 s; PATT, T (plasma hemostasis [3]; [20]): 33.1 ± 0.1 s; PATT, T (plasma hemostasis [3]; [21]): 33.3 ± 0.1 s; PATT, T (plasma hemostasis [3]; [22]): 33.3 ± 0.2 s; PATT, T (plasma hemostasis [3]; [23]): 33.0 ± 0.4 s; PATT, T (plasma hemostasis [3]; [24]): 32.5 ± 0.1 s; PATT, T (plasma hemostasis [3]; [25]): 32.3 ± 0.2 s; PATT, T (plasma hemostasis [3]; [26]): 32.4 ± 0.1 s; PATT, T (plasma hemostasis [3]; [27]): 32.6 ± 0.3 s; effect on the PATT (plasma hemostasis [3]): do not affect the PATT
